This is an account of results in US20230025891A1, “COMPOSITION OF NATURAL EXTRACTS HAVING ANTIBACTERIAL OR BACTERIOSTATIC ACTIVITY ALSO FOR GRAM-NEGATIVE BACTERIA” (priority 2019, published 2023).

One data set in a line: Solubility. The data set is classed as physicochemical. To be noted: qualitative. The protocol: Racemic usnic acid (CAS No. 125-46-2) is the bioactive secondary metabolite of lichens. The large-scale use of said usnic acid has always been limited due to the low solubility in water (0.06 mg/cm^3, at room temperature of 20° C. and 1 atmosphere pressure).
As mentioned above, in such compound (ci) the lipophilic cavity of the cyclodextrins (host) hosts D-usnic acid, or salt thereof, or mixtures thereof (i) (guest), through a reversible non-covalent interaction. As a matter of fact, during the formation of the inclusion compound (ci), no covalent bond is formed, and no covalent bond is broken. The mechanism which—at least primarily—promotes the formation of the inclusion compound is the release of solvent molecules (preferably water molecules), a highly enthalpic exchange reaction, from the cyclodextrin cavity (ii). […] Furthermore, the inclusion compound (ci) renders D-usnic acid (or a salt thereof) compatible in an aqueous solution or an aqueous dispersion or an aqueous suspension. When said aqueous solution or dispersion or suspension, containing said inclusion compound (ci), is applied manually—by spraying or mechanically—to a surface such as that of a wall or floor of a hospital or kindergarten or school room, said acid or a salt thereof contained in said inclusion compound (ci) is capable of being placed, adhering and coating said surface uniformly and homogeneously as if it were a coating paint.
Said D-usnic acid as enantiomer (i), preferably as pure enantiomer, is of natural origin and could be associated, as chemical structure, with that of the corresponding synthesis compound having CAS No. 7562-61-0, i.e. the dextrorotatory enantiomer of said acid. The D-usnic acid as the pure enantiomer of the present invention is soluble in chloroform and ethyl acetate. […] Said D-usnic acid as a pure enantiomer has a melting point comprised from 192° C. to 204° C., a flash point of 223° C. and a boiling point of 605° C. Preferably, said D-usnic acid salt as pure enantiomer is a sodium salt. Said inclusion compound (ci) preferably comprises solid particles of D-usnic acid as pure enantiomer, or salt thereof, or mixtures thereof (i). More preferably, said solid particles have an average particle distribution comprised from 0.01 μm to 50 μm, preferably comprised from 0.1 μm to 30 μm, more preferably comprised from 0.15 μm to 20 μm, even more preferably comprised from 0.2 μm to 15 μm. Said average particle distribution was determined and measured using a laser diffraction method, according to the GB/T 19077-2016 standard, for example with a Malvern Mastersizer 3000 instrument. Said standard is meant in the version valid at the priority date of the present patent application. […]

The nature of data set [1]: Observed anti-bacterial efficacy depending on origin and isomer of usnic acid. The settings on record: natural versus synthetic dextrorotatory form. The source says:
Therefore, the solubility of usnic acid in water has always represented, and still represents, a great limit to its use. Furthermore, as regards the efficacy of usnic acid (or of a relative salt thereof) in terms of anti-bacterial activity, the inventors of the present invention observed that it depends both on the (natural or synthetic) origin of usnic acid and on the type of isomer (levorotatory(−) and/or dextrorotatory(+)) used.

Regarding `CC(=O)c1c(O)c(C)c(O)c2c1OC1=CC(=O)C(C(C)=O)C(=O)C12C` (single isomer, unassigned; (+)) [D-usnic acid, (+)-Usnic acid 2,6-Diacetyl-7,9-dihydroxy-8,9-dimethyldibenzo[b,d]furan-1,3(2H,9bH)-dione], in “Solubility”, the solubility in chloroform entry is “soluble”, the solubility in ethanol entry is reported as “moderately soluble”, the “solubility in ethyl acetate” value was “soluble” and the solubility in water entry was “insoluble”. In addition, the “stability, efficacy and activity compared with synthetic origin” value in data set [1] was “more stable, effective and active than the dextrorotatory form (+) of synthetic origin”.
